Results: article PMC5736629, “Allosteric modulation of protein-protein interactions by individual lipid binding events” (Nature Communications, 2017)
Read-outs that look alike come from different tables or passages of the source.

Assays:
AmtB–GlnK complex = target: T1, AmtB–GlnK complex (Escherichia coli, UniProt P69681); test: Native MS lipid titration, lipid binding to AmtB–GlnK (equilibrium-coupled binding model); settings: 50 µM ADP, 298 K
T1 construct: pelB signal peptide (N, cleaved yes); 10x His-tag (N, cleaved yes); made in house; host or cells: AmtB: Escherichia coli C41(DE3), pET15b; stGlnK: Escherichia coli ArcticExpress (DE3) RIL, pET28b
T1 sequence (P0AC55 whole entry Y51F): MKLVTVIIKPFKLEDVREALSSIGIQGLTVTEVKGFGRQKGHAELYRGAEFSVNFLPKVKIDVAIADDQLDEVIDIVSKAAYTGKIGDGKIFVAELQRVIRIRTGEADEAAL
T1 sequence (P69681 23-428): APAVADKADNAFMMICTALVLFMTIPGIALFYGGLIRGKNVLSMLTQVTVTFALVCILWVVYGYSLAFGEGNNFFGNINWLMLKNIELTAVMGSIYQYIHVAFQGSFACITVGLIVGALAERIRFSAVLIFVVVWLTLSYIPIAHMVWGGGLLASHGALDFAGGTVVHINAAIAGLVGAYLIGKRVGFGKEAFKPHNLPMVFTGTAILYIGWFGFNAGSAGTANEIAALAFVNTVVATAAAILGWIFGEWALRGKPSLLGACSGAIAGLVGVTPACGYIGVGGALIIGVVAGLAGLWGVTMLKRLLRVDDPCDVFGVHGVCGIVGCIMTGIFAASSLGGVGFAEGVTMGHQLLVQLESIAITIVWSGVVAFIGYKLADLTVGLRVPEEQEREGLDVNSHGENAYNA
Procedure: (§1) A stock of ADP was prepared by dissolving the ammonium salt form of ADP in water followed by adjusting the pH with ammonium hydroxide to 7.0. Serial dilutions into MS buffer (200 mM ammonium acetate, 0.5% C8E4, and pH adjusted to 7.4 with ammonium hydroxide) supplemented with 5 mM BME was performed to prepare ADP at certain concentrations. Phospholipids were prepared as previously described. In brief, stock solutions of each phospholipid were resuspended in chloroform, aliqouted, and chloroform was removed by a steady stream on nitrogen gas. Lipid films were placed under vacuum overnight to prepare to resuspend in MS buffer supplemented with 5 mM 2-mercaptoethanol. Phospholipid concentration was determined by phosphorus analysis.

AmtB–GlnK interaction = target: T2, AmtB–GlnK interaction (Escherichia coli, UniProt P69681); test: Native MS lipid titration, GlnK binding to apo or lipid-bound AmtB; coupling factors (allosteric modulation); settings: for Kd: 50 µM ADP, 298 K; for Coupling factor a1: first bound lipid; for Coupling factor a2: second bound lipid; for Coupling factor a3: third bound lipid; for allosteric modulation of AmtB–GlnK (from coupling factors) / effect of lipid-binding events on K D,ALnG: result in words; for increase in the coupling factor per lipid-binding event: linear fit to the coupling factors as a function of bound lipid
T2 construct: pelB signal peptide (N, cleaved yes); 10x His-tag (N, cleaved yes); made in house; host or cells: AmtB: Escherichia coli C41(DE3), pET15b; stGlnK: Escherichia coli ArcticExpress (DE3) RIL, pET28b
T2 sequence (P0AC55 whole entry Y51F): as the sequence (P0AC55 whole entry Y51F) above
T2 sequence (P69681 23-428): as the sequence (P69681 23-428) above
Procedure: as §1

AmtB = target: T3, AmtB (Escherichia coli, UniProt P69681); test: Native MS lipid titration, lipid binding to AmtB (equilibrium-coupled binding model); settings: 50 µM ADP, 298 K
T3 construct: pelB signal peptide (N, cleaved yes); 10x His-tag (N, cleaved yes); made in house; host or cells: Escherichia coli C41(DE3), pET15b
T3 sequence (P69681 23-428): as above
Procedure: as §1

GlnK = target: GlnK; design: method as in earlier work; settings: 298K, absence of detergent, ref 2 (supplement), cited from earlier work
[1] = KD,AGL1, first lipid binding to AmtB–GlnK
[2] = KD,AGL2, second lipid binding to AmtB–GlnK
[3] = KD,AGL3, third lipid binding to AmtB–GlnK
[4] = KD,AG, GlnK binding apo AmtB, from global fit of the titration with the named lipid
[5] = KD,AL2G, GlnK binding AmtB bound to 2 lipids
[6] = KD,AL3G, GlnK binding AmtB bound to 3 lipids
[7] = KD,ALG, GlnK binding AmtB bound to 1 lipid
[8] = KD,AL1, first lipid binding to AmtB
[9] = KD,AL2, second lipid binding to AmtB
[10] = KD,AL3, third lipid binding to AmtB

| Compound | Kd (AmtB–GlnK complex; [1]) | Kd (AmtB–GlnK complex; [2]) | Kd (AmtB–GlnK complex; [3]) | Kd (AmtB–GlnK interaction; [4]) | Kd (AmtB–GlnK interaction; [5]) | Kd (AmtB–GlnK interaction; [6]) | Kd (AmtB–GlnK interaction; [7]) | Coupling factor a1 (AmtB–GlnK interaction) | Coupling factor a2 (AmtB–GlnK interaction) | Coupling factor a3 (AmtB–GlnK interaction) | Kd (AmtB; [8]) | Kd (AmtB; [9]) | Kd (AmtB; [10]) | allosteric modulation of AmtB–GlnK (from coupling factors) (AmtB–GlnK interaction) | effect of lipid-binding events on K D,ALnG (AmtB–GlnK interaction) | other results |
| --- | --- | --- | --- | --- | --- | --- | --- | --- | --- | --- | --- | --- | --- | --- | --- | --- |
| CCCCCCCCCCCCCCCC(=O)OC[C@H](COP(=O)(O)OCC(O)CO)OC(=O)CCCCCCCCCCCCCCC (some centres unmarked) [DPPG] | 14.8 ± 0.64 µM | 31.7 ± 1.89 µM | 53.4 ± 16.6 µM | 0.521 ± 0.0158 µM | 0.23 ± 0.0559 µM | 0.164 ± 0.0721 µM | 0.424 ± 0.0361 µM | 1.25 ± 0.10 | 1.98 ± 0.32 | 1.66 ± 0.33 | 18.5 ± 1.85 µM | 63.8 ± 13.2 µM | 99.8 ± 45.3 µM |  |  |  |
| CCCCCCCC/C=C\CCCCCCCC(=O)OC[C@H](COP(=O)(O)OCC(O)COP(=O)(O)OC[C@@H](COC(=O)CCCCCCC/C=C\CCCCCCCC)OC(=O)CCCCCCC/C=C\CCCCCCCC)OC(=O)CCCCCCC/C=C\CCCCCCCC (some centres unmarked) [TOCDL, 1,1′,2,2′-tetraoleoyl-cardiolipin] |  |  |  |  |  |  |  | 1.17 ± 0.09 | 1.03 ± 0.06 | 1.11 ± 0.15 |  |  |  | neutral allosteric modulation | little effect on K D,ALnG | Kd (AmtB–GlnK complex; read-out: KD,AGL1, first lipid binding to AmtB–GlnK): 17 ± 0.17 µM; Kd (AmtB–GlnK complex; read-out: KD,AGL2, second lipid binding to AmtB–GlnK): 29.3 ± 1.42 µM; Kd (AmtB–GlnK complex; read-out: KD,AGL3, third lipid binding to AmtB–GlnK): 29.5 ± 1.68 µM; Kd (AmtB–GlnK interaction; read-out: KD,AG, GlnK binding apo AmtB, from global fit of the titration with the named lipid): 0.517 ± 0.0312 µM; Kd (AmtB–GlnK interaction; read-out: KD,AL2G, GlnK binding AmtB bound to 2 lipids): 0.443 ± 0.0689 µM; Kd (AmtB–GlnK interaction; read-out: KD,AL3G, GlnK binding AmtB bound to 3 lipids): 0.414 ± 0.0776 µM; Kd (AmtB–GlnK interaction; read-out: KD,ALG, GlnK binding AmtB bound to 1 lipid): 0.45 ± 0.0561 µM; Kd (AmtB; read-out: KD,AL1, first lipid binding to AmtB): 19.9 ± 1.65 µM; Kd (AmtB; read-out: KD,AL2, second lipid binding to AmtB): 30.2 ± 2.05 µM; Kd (AmtB; read-out: KD,AL3, third lipid binding to AmtB): 33.1 ± 6.01 µM |
| CCCCCCCC/C=C\CCCCCCCC(=O)O[C@H](COC(=O)CCCCCCCCCCCCCCC)COP(=O)(O)OCC(O)CO (some centres unmarked) [POPG] | 12.04 ± 0.06 µM | 25.4 ± 1.11 µM | 34.3 ± 3.4 µM | 0.54 ± 0.0267 µM | 0.396 ± 0.0754 µM | 0.313 ± 0.162 µM | 0.485 ± 0.0356 µM | 1.12 ± 0.06 | 1.30 ± 0.21 | 1.74 ± 0.46 | 13.5 ± 0.73 µM | 33.3 ± 6.39 µM | 56.7 ± 11.8 µM | positive allosteric modulation | decrease in K D,ALnG with each consecutive binding event | increase in the coupling factor per lipid-binding event (AmtB–GlnK interaction): 0.3 |
| CCCCCCCC/C=C/CCCCCCCC(=O)OC[C@H](COP(=O)(O)OCCN)OC(=O)CCCCCCC/C=C/CCCCCCCC [DOPE (trans)] | 19 ± 0.42 µM | 46 µM |  | 0.556 ± 0.0327 µM | 0.121 ± 0.0256 µM |  | 0.356 ± 0.0141 µM | 1.57 ± 0.14 | 3.29 ± 0.82 | 5.28 ± 1.82 | 29.7 ± 2.18 µM | 159 ± 57.3 µM |  | greater positive allosteric modulation |  |  |
| CCCCCCCCCCCC(=O)OC[C@H](COP(=O)(O)OCC(O)CO)OC(=O)CCCCCCCCCCC (some centres unmarked) [DLPG] | 17.1 ± 1.96 µM | 28.6 ± 3.98 µM | 29.1 ± 2.27 µM | 0.522 ± 0.0258 µM | 0.313 ± 0.0435 µM | 0.271 ± 0.0539 µM | 0.401 ± 0.0148 µM | 1.30 ± 0.04 | 1.35 ± 0.26 | 1.19 ± 0.15 | 22.5 ± 3.23 µM | 39.1 ± 9.25 µM | 34.03 ± 0.15 µM |  |  |  |
| CCCCCCCCCCCCCC(=O)OC[C@H](COP(=O)(O)OCC(O)CO)OC(=O)CCCCCCCCCCCCC (some centres unmarked) [DMPG] | 6.92 ± 0.33 µM | 14.1 ± 0.35 µM | 19.6 ± 0.33 µM | 0.551 ± 0.0134 µM | 0.543 ± 0.0387 µM | 0.523 ± 0.0284 µM | 0.561 ± 0.0235 µM | 0.99 ± 0.05 | 1.04 ± 0.04 | 1.04 ± 0.02 | 6.78 ± 0.19 µM | 14.6 ± 1.2 µM | 20.27 ± 0.12 µM | neutral allosteric modulation |  |  |
| CCCCCCCC/C=C\CCCCCCCC(=O)O[C@H](COC(=O)CCCCCCCCCCCCCCC)COP(=O)(O)O [POPA] | 10 ± 0.31 µM | 19.8 ± 0.58 µM | 26.2 ± 2.19 µM | 0.517 ± 0.0463 µM | 0.707 ± 0.0945 µM | 0.75 ± 0.0992 µM | 0.644 ± 0.0735 µM | 0.81 ± 0.02 | 0.92 ± 0.04 | 0.94 ± 0.04 | 8.11 ± 0.41 µM | 18.1 ± 1.18 µM | 24.7 ± 2.44 µM | slight negative allosteric modulation | each binding event weakening the molecular interaction between AmtB and GlnK |  |
| CCCCCCCC/C=C\CCCCCCCC(=O)O[C@H](COC(=O)CCCCCCCCCCCCCCC)COP(=O)(O)OC[C@H](N)C(=O)O [POPS] | 9.18 ± 0.6 µM | 19.9 ± 0.36 µM | 26.7 ± 1.82 µM | 0.499 ± 0.0347 µM | 0.405 ± 0.0395 µM | 0.363 ± 0.0372 µM | 0.446 ± 0.0644 µM | 1.15 ± 0.09 | 1.09 ± 0.08 | 1.13 ± 0.10 | 10.5 ± 0.97 µM | 21.8 ± 1.97 µM | 30.4 ± 4.97 µM | neutral allosteric modulation | little effect on K D,ALnG |  |
| Nc1ncnc2c1ncn2[C@@H]1O[C@H](COP(=O)(O)OP(=O)(O)O)[C@@H](O)[C@H]1O [ADP, adenosine diphosphate] |  |  |  |  |  |  |  |  |  |  |  |  |  |  |  | Kd (GlnK; read-out: KD for GlnK binding the first ADP molecule): 20 µM; Kd (GlnK; read-out: KD for GlnK binding the second ADP molecule): 56 µM; Kd (GlnK; read-out: KD for GlnK binding the third ADP molecule): 100 µM |
| CCCCCCCC/C=C\CCCCCCCC(=O)O[C@H](COC(=O)CCCCCCCCCCCCCCC)COP(=O)([O-])OCC[N+](C)(C)C [POPC] | 18.9 ± 1.36 µM | 40.3 ± 3.92 µM | 59.5 ± 17.9 µM | 0.486 ± 0.0325 µM | 0.192 ± 0.0112 µM |  | 0.345 ± 0.0822 µM | 1.52 ± 0.23 | 1.76 ± 0.31 | 2.50 ± 0.80 | 29.2 ± 5.99 µM | 68.3 ± 4.81 µM | 104 ± 7.56 µM |  | decrease in K D,ALnG with each consecutive binding event |  |
| CCCCCCCC/C=C\CCCCCCCC(=O)OC[C@H](COP(=O)(O)OCCN)OC(=O)CCCCCCC/C=C\CCCCCCCC [DOPE (cis)] | 12.3 ± 0.39 µM | 27.6 ± 1.09 µM | 32.9 ± 2.11 µM | 0.517 ± 0.0504 µM | 0.315 ± 0.0269 µM | 0.206 ± 0.0621 µM | 0.421 ± 0.0375 µM | 1.23 ± 0.02 | 1.34 ± 0.10 | 1.71 ± 0.31 | 15.1 ± 0.63 µM | 36.9 ± 2.85 µM | 57.6 ± 13.3 µM |  |  |  |
| CCCCCCCC/C=C\CCCCCCCC(=O)O[C@H](COC(=O)CCCCCCCCCCCCCCCCC)COP(=O)(O)OCCN [SOPE] | 14.5 ± 1.28 µM | 2.85 ± 2.32 µM | 45.2 ± 7.56 µM | 0.528 ± 0.0448 µM | 0.321 ± 0.0944 µM | 0.215 ± 0.0607 µM | 0.482 ± 0.0919 µM | 1.16 ± 0.19 | 1.60 ± 0.19 | 1.57 ± 0.25 | 16.4 ± 1.39 µM | 46.6 ± 9.46 µM | 73.6 ± 22 µM |  |  |  |
| CCCCCCCC/C=C\CCCCCCCC(=O)O[C@H](COC(=O)CCCCCCCCCCCCCCC)COP(=O)(O)OCCN [POPE] | 16.3 ± 0.4 µM | 33.6 ± 1.24 µM | 47.7 ± 7.02 µM | 0.504 ± 0.0616 µM | 0.245 ± 0.0372 µM | 0.137 ± 0.0482 µM | 0.391 ± 0.0593 µM | 1.30 ± 0.04 | 1.63 ± 0.24 | 2.04 ± 0.37 | 21.1 ± 0.27 µM | 55.3 ± 9.22 µM | 96.2 ± 27 µM | positive allosteric modulation | decrease in K D,ALnG with each consecutive binding event | increase in the coupling factor per lipid-binding event (AmtB–GlnK interaction): 0.4 |
